From patent US20220073536A1 (Rigel Pharmaceuticals, Inc., priority 2003, published 2022)
Like-named read-outs stand apart in the source and are kept apart here. Each block holds one molecule with its values, some of them ahead of it.

Tested on: cultured human mast cells (CHMC)
Assay: CHMC low cell density IgE activation: tryptase assay
Assay type: cell-based
Conditions: low cell density CHMC, IgE activation
Description: Inhibition of degranulation was measured at both low and high cell density by quantifying the release of the granule specific factors tryptase, histamine and hexosaminidase. Inhibition of release and/or synthesis of lipid mediators was assessed by measuring the release of leukotriene LTC4 and inhibition of release and/or synthesis of cytokines was monitored by quantifying TNF-α, IL-6 and IL-13. Tryptase and hexosaminidase were quantified using fluorogenic substrates as described in their respective examples. […] The protocols of the various assays are provided below.
Pellet CHMC cells (980 rpm, 10 min) and resuspend in pre-warmed MT. Add 65 ul of cells to each 96-well plate. Depending on the degranulation activity for each particular CHMC donor, load 1000-1500 cells/well. Mix four times followed by a 1 hr incubation at 37° C. […] Stimulate cells by adding 25 ul of 6× anti-IgE solution to the appropriate plates. Add 25 ul MT to un-stimulated control wells. Mix twice following addition of the anti-IgE. Incubate at 37° C. for 30 minutes. […] Spin plates at 1000 rpm for 10 min to pellet cells. Transfer 25 ul of supernatant to a 96-well black bottom plate and add 100 ul of freshly diluted tryptase substrate solution to each well. Incubate plates at room temperature for 30 min.

[1] = Homo sapiens, Mast cell, tryptase release, 8 pt, read-out: LD Tryptase, CHMC, IgE, 8 pt
[2] = Homo sapiens, Mast cell, tryptase release, 3 pt, read-out: LD Tryptase, CHMC, IgE, 3 pt
[3] = tryptase release, 8 pt, read-out: LD Tryptase, CHMC, IgE, 8 pt
[4] = tryptase release, 3 pt, read-out: LD Tryptase, CHMC, IgE, 3 pt

Structure (SMILES): CC1(C)C(=O)Nc2cc(Nc3nc(Nc4cccc(O)c4)ncc3F)ccc2S1(=O)=O [Compound 283, racemic-N4-(2,2-Dimethyl-1,1,3-trioxo-4H-benzo[1,4]thiazin-6-yl)-5-fluoro-N2-[3-hydoxyphenyl]-2,4-pyrimidinediamine]
IC50 [3]: < 10 µM

Structure (SMILES): CNC(=O)COc1cccc(Nc2ncc(F)c(Nc3ccc4c(c3)NC(=O)C(C)(C)S4)n2)c1 [Compound 294, N4-(2,2-Dimethyl-3-oxo-4H-benzo[1,4]thiazin-6-yl)-5-fluoro-N2-[3-(N-methylamino)carbonylmethyleneoxyphenyl]-2,4-pyrimidinediamine]
IC50 [4]: < 10 µM | IC50 [3]: < 10 µM

Structure (SMILES): COc1ccc(Nc2ncc(F)c(Nc3ccc4c(c3)NC(=O)C(C)(C)S4(=O)=O)n2)cc1F [Compound 297]
IC50 [2]: < 10 µM | IC50 [1]: < 10 µM

Structure (SMILES): CNC(=O)COc1cccc(Nc2ncc(F)c(Nc3ccc4c(c3)NC(=O)CS4(=O)=O)n2)c1 [Compound 305, 5-Fluoro-N2-[3-(N-methylamino)carbonylmethyleneoxyphenyl]-N4-(1,1,3-trioxo-2H,4H-benzo[1,4]thiazin-6-yl)-2,4-pyrimidinediamine]
IC50 [3]: < 10 µM

Structure (SMILES): COc1cc(Nc2ncc(F)c(Nc3ccc4c(c3)NC(=O)CS4(=O)=O)n2)cc(OC)c1OC [Compound 306, 5-Fluoro-N2-(3,4,5-triimethoxylphenyl)-N4-(1,1,3-trioxo-2H,4H-benzo[1,4]thiazin-6-yl)-2,4-pyrimidinediamine]
IC50 [3]: < 10 µM

Structure (SMILES): O=C1CS(=O)(=O)c2ccc(Nc3nc(Nc4ccc5cn[nH]c5c4)ncc3F)cc2N1 [Compound 307]
IC50 [1]: < 10 µM

Structure (SMILES): O=C1CS(=O)(=O)c2ccc(Nc3nc(Nc4cccc(O)c4)ncc3F)cc2N1 [Compound 308]
IC50 [1]: < 10 µM

Structure (SMILES): O=C1CS(=O)(=O)c2ccc(Nc3nc(Nc4ccc5[nH]ncc5c4)ncc3F)cc2N1 [Compound 310]
IC50 [1]: < 10 µM

Structure (SMILES): O=C1CS(=O)(=O)c2ccc(Nc3nc(Cl)ncc3F)cc2N1 [Compound 315, N2-Chloro-5-fluoro-N4-(1,1,3-trioxo-2H,4H-benzo[1,4]thiazin-6-yl)-4-pyrimidineamine]
IC50 [4]: > 10 µM

Structure (SMILES): CC1(C)Sc2ccc(Nc3nc(Cl)ncc3F)cc2NC1=O [Compound 316, N2-Chloro-N4-(2,2,-dimethyl-3-oxo-4H-benzo[1,4]thiazin-6-yl)-5-fluoro-4-pyrimidineamine]
IC50 [4]: < 10 µM

Structure (SMILES): CC1(C)C(=O)Nc2cc(Nc3nc(Cl)ncc3F)ccc2S1(=O)=O [Compound 318, N2-Chloro-N4-(2,2-dimethyl-1,1,3-trioxo-4H-benzo[1,4]thiazin-6-yl)-5-fluoro-4-pyrimidineamine]
IC50 [4]: < 10 µM

Structure (SMILES): CC1(C)COc2ccc(Nc3nc(Cl)ncc3F)cc2N1 [Compound 320, N2-Chloro-N4-(3,3-dimethyl-1,4-benzoxazin-6-yl)-5-fluoro-pyrimidineamine]
IC50 [4]: < 10 µM

Structure (SMILES): COc1cc(Nc2ncc(F)c(Nc3cccc(OC(F)(F)F)c3)n2)cc(OC)c1 [Compound 324]
IC50 [2]: < 10 µM

Structure (SMILES): Fc1cnc(Nc2ccc3cc[nH]c3c2)nc1Nc1cccc(OC(F)(F)F)c1 [Compound 326, 5-Fluoro-N2-(indol-6-yl)-N4-(3-trifluoromethoxyphenyl)-2,4-pyrimidinediamine]
IC50 [2]: < 10 µM | IC50 [1]: < 10 µM

Structure (SMILES): CNC(=O)COc1cccc(Nc2ncc(F)c(Nc3ccc4ccn(C(=O)NC)c4c3)n2)c1 [Compound 327, 5-Fluoro-N4-[1-(N-methylamino)carbonylindol-6-yl]-N2-[3-(N-methylamino)carbonylmethyleneoxyphenyl]-2,4-pyrimidinediamine]
IC50 [4]: < 10 µM

Structure (SMILES): Cc1cc(C)cc(N(c2cc(C)cc(C(F)(F)F)c2)c2nc(N)ncc2F)c1 [Compound 330]
IC50 [2]: < 10 µM

Structure (SMILES): COc1cc(Nc2ncc(F)c(Nc3cc(OC)cc(C(F)(F)F)c3)n2)cc(OC)c1 [Compound 332, N2-(3,5-Dimethoxyphenyl)-5-fluoro-N4-(3-methoxy-5-trifluoromethylphenyl)-2,4-pyrimidinediamine]
IC50 [2]: < 10 µM

Structure (SMILES): COc1cc(Nc2ncc(F)c(Nc3cc(OC)cc(C(F)(F)F)c3)n2)cc(C(F)(F)F)c1 [Compound 333]
IC50 [2]: < 10 µM

Structure (SMILES): COc1cc(Nc2nc(Nc3cc(C)cc(C(F)(F)F)c3)ncc2F)cc(C(F)(F)F)c1 [Compound 334]
IC50 [2]: < 10 µM

Structure (SMILES): COc1cc(Nc2nc(Nc3cc(OC)c(OC)c(OC)c3)ncc2F)cc(C(F)(F)F)c1 [Compound 335]
IC50 [1]: < 10 µM

Structure (SMILES): COc1cc(Nc2nc(Nc3cc(C)c(O)c(Cl)c3)ncc2F)cc(C(F)(F)F)c1 [Compound 336, N2-(3-Chloro-4-hydroxy-5-methylphenyl)-5-fluoro-N4-(3-methoxy-5-trifluoromethylphenyl)-2,4-pyrimidinediamine]
IC50 [2]: < 10 µM

Structure (SMILES): COc1cc(Nc2nc(Nc3cc(Cl)cc(Cl)c3)ncc2F)cc(C(F)(F)F)c1 [Compound 337]
IC50 [2]: < 10 µM

Structure (SMILES): COc1cc(Nc2nc(Nc3cc(C)c(Cl)c(C)c3)ncc2F)cc(C(F)(F)F)c1 [Compound 339]
IC50 [2]: > 10 µM

Structure (SMILES): COc1cc(Nc2ncc(F)c(Nc3cc(OC)cc(OC)c3)n2)cc(OC)c1 [Compound 340]
IC50 [2]: < 10 µM | IC50 [1]: < 10 µM

Continued, values first:

IC50 [1]: < 10 µM
Structure (SMILES): COc1ccc(Nc2ncc(F)c(Nc3ccc4c(c3)NC(=O)C(C)S4)n2)cc1Cl (centres unmarked) [Compound 280]

IC50 [2]: < 10 µM | IC50 [1]: < 10 µM
Structure (SMILES): O=C1CSc2ccc(Nc3nc(Nc4cccc(O)c4)ncc3F)cc2N1 [Compound 281]

IC50 [1]: < 10 µM
Structure (SMILES): COc1cc(Nc2ncc(F)c(Nc3ccc4c(c3)NC(=O)CS4)n2)cc(OC)c1OC [Compound 287]

IC50 [1]: < 10 µM
Structure (SMILES): O=C1CSc2ccc(Nc3nc(Nc4ccc5[nH]ncc5c4)ncc3F)cc2N1 [Compound 288]

IC50 [3]: < 10 µM
Structure (SMILES): COc1ccc(Nc2ncc(F)c(Nc3ccc4c(c3)NC(=O)C(C)(C)S4)n2)cc1Cl [Compound 289]

IC50 [1]: < 10 µM
Structure (SMILES): COc1cc(Nc2ncc(F)c(Nc3ccc4c(c3)NC(=O)C(C)(C)S4)n2)cc(OC)c1 [Compound 290]

IC50 [1]: < 10 µM
Structure (SMILES): Cc1cc(C)cc(Nc2ncc(F)c(Nc3ccc4c(c3)NC(=O)C(C)(C)S4)n2)c1 [Compound 291]

IC50 [1]: < 10 µM
Structure (SMILES): COc1cc(Nc2ncc(F)c(Nc3ccc4c(c3)NC(=O)C(C)(C)S4)n2)cc(OC)c1OC [Compound 292]

IC50 [1]: < 10 µM
Structure (SMILES): CC1(C)Sc2ccc(Nc3nc(Nc4cccc(O)c4)ncc3F)cc2NC1=O [Compound 293]

IC50 [2]: < 10 µM | IC50 [1]: < 10 µM
Structure (SMILES): CC1(C)Sc2ccc(Nc3nc(Nc4ccc5cn[nH]c5c4)ncc3F)cc2NC1=O [Compound 295]

IC50 [4]: < 10 µM | IC50 [3]: < 10 µM
Structure (SMILES): COc1ccc(Nc2ncc(F)c(Nc3ccc4c(c3)NC(=O)C(C)(C)S4)n2)cc1F [Compound 299]

IC50 [2]: < 10 µM | IC50 [1]: < 10 µM
Structure (SMILES): COc1ccc(Nc2ncc(F)c(Nc3ccc4c(c3)NC(=O)CS4)n2)cc1F [Compound 300, 5-Fluoro-N2-(3-fluoro-4-methoxyphenyl)-N4-(3-oxo-2H,4H-benzo[1,4]thiazin-6-yl)-2,4-pyrimidinediamine]

IC50 [2]: < 10 µM | IC50 [1]: < 10 µM
Structure (SMILES): Cc1cc(C)cc(Nc2ncc(F)c(Nc3ccc4c(c3)NC(=O)CS4)n2)c1 [Compound 301]

IC50 [1]: < 10 µM
Structure (SMILES): Cc1cc(C)cc(Nc2ncc(F)c(Nc3ccc4c(c3)NC(=O)CS4(=O)=O)n2)c1 [Compound 302]

IC50 [1]: < 10 µM
Structure (SMILES): COc1cc(Nc2ncc(F)c(Nc3ccc4c(c3)NC(=O)CS4(=O)=O)n2)cc(OC)c1 [Compound 303]

IC50 [1]: < 10 µM
Structure (SMILES): COc1ccc(Nc2ncc(F)c(Nc3ccc4c(c3)NC(=O)CS4(=O)=O)n2)cc1Cl [Compound 304]

IC50 [1]: < 10 µM
Structure (SMILES): COc1ccc(Nc2ncc(F)c(Nc3ccc4c(c3)NC(=O)CS4(=O)=O)n2)cc1F [Compound 309]

IC50 [2]: < 10 µM | IC50 [1]: < 10 µM
Structure (SMILES): Cn1ncc2ccc(Nc3ncc(F)c(Nc4ccc5c(c4)NC(=O)C(C)(C)S5)n3)cc21 [Compound 311]

IC50 [4]: < 10 µM
Structure (SMILES): O=C1CSc2ccc(Nc3nc(Cl)ncc3F)cc2N1 [Compound 313, N2-Chloro-5-fluoro-N4-(3-oxo-2H,4H-benzo[1,4]thiazin-6-yl)-4-pyrimidineamine]

IC50 [2]: < 10 µM
Structure (SMILES): Cc1cc(C)cc(Nc2ncc(F)c(Nc3cccc(OC(F)(F)F)c3)n2)c1 [Compound 325, N2-(3,5-Dimethylphenyl)-5-fluoro-N4-(3-trifluoromethoxyphenyl)-2,4-pyrimidinediamine]

IC50 [1]: < 10 µM
Structure (SMILES): COc1cc(Nc2ncc(F)c(Nc3cc(C)cc(C)c3)n2)cc(OC)c1 [Compound 328]

IC50 [2]: < 10 µM
Structure (SMILES): COc1cc(Nc2ncc(F)c(Nc3cc(C)cc(C)c3)n2)cc(C(F)(F)F)c1 [Compound 329]

IC50 [2]: < 10 µM
Structure (SMILES): COc1cc(Nc2nc(Nc3cc(C)cc(C)c3)ncc2F)cc(C(F)(F)F)c1 [Compound 331]

IC50 (Homo sapiens, Mast cell, tryptase, 3 pt, read-out: LD Tryptase, CHMC, IgE, 3 pt): < 10 µM
Structure (SMILES): Cc1cc(C)cc(Nc2ncc(F)c(Nc3cc(C)cc(C)c3)n2)c1 [Compound 341, N2,N4-Bis (3,5-dimethylphenyl)-5-fluoro-2,4-pyrimidinediamine]

IC50 (Homo sapiens, Mast cell, tryptase, 8 pt, read-out: LD Tryptase, CHMC, IgE, 8 pt): < 10 µM
Structure (SMILES): CC1(C)Oc2ccc(Nc3nc(Nc4cc(CO)cc(CO)c4)ncc3F)cc2NC1=O [Compound 344, N2-[3,5-Bis (hydoxymethylene)phenyl]-N4-(2,2-dimethyl-3-oxo-4H-benz[1,4]oxazin-6-yl)-5-fluoro-2,4-pyrimidinediamine]
